# System: cell lines which carried a BRAF V600E mutation
# Test: Cell growth assay (CellTiter-Glo or methylene blue) in solid cancer cell lines
# Assay type: cell-based
# Settings: 96 hours, 0.3-10000 nM
# Procedure: In a separate experiment, Compounds 091 and 106 were tested in solid cancer cell lines from different tissue types (shown in FIG. 3B for 21 cell lines for compound 091 and 19 cell lines for compound 106). All cell lines were introduced into 96-well plates and grown in the absence or continuous presence of 0.3-10000 nM of either compound 091 or compound 106 for 96 hours. Cell growth was assessed using a CellTiter-Glo® Luminescent Cell Viability Assay (Promega) or a methylene blue assay. IC50 values were determined as the concentration of a substance which inhibits cell growth by 50% compared to untreated cell populations.
structure (smiles),measurement,value
CNc1cc(O)c2c(c1)/C=C/C[C@H](O)[C@H](O)C(=O)/C=C\[C@@H](C)[C@H](C)OC2=O [Compound 091],Sensitivity of BRAF V600E cell lines (concentration range),low-nM or sub-μM concentration range

# From patent publication US20160291027A1, “METHODS FOR […] ABILITY OF A Z[…] COMPOUND TO TREAT CANCER” (Eisai R&D Management Co., Ltd., priority 2007, published 2016)
